Here are results for five molecules from US20250186423A1, “METHODS OF TREATING CANCER AND OTHER CONDITIONS WITH A MU OPIOID RECEPTOR ANTAGONIST” (priority 2022, published 2025).

Series [1] has as its system Human umbilical vein endothelial cells (HUVEC). The series can be described thus: HUVEC cell tube formation. It counts as cell-based. The settings on record: 0-1000 nM, 18 hours, absence of exogenous opioids. The procedure:
Two independent model systems were used to explore the role of MOR and endogenous opioids on angiogenesis. Human umbilical vein endothelial cells (HUVEC) in culture initiate angiogenesis through tube formation when cultured on an appropriate extracellular matrix. In a living system, the chicken egg chorioallantoic membrane assay (CAM) allows direct visualization of new blood vessel formation.
Specifically, the HUVEC cell tube formation was assessed in the presence of various doses (0-1000 nM) of three different Mu opioid receptor antagonists (axelopran, naloxegol, and methylnaltrexone (MNTX)). For this testing, the HUVEC cells were exposed to the various MOR antagonist concentrations and incubated under the following conditions: Briefly, 50 μL of Matrigel in 96 well plates was loaded to make one layer of extracellular matrix. The plate was kept for 1 hour at 37° C. HUVEC cells were seeded on top of Matrigel (0.02×10^6 cells/well) and waited for 4 h to form tube formation. […] Once tubes formed, cells were treated with increasing amounts of the test compounds (axelopran, naloxegol, and MNTX) and incubated for 18 hours. Cells were stained with Calcein AM and images were captured. The data analysis was performed using NIH imageJ software. Tube length was measure and data was plotted using prism software.

Series [2] has as its system human microvascular endothelial cells. The settings on record: Feng et al. BMC Anesthesiol (2021); cited from earlier work.
The subject of series [3] is MDA-MB-231 tumor cell line. The series can be described thus: Breast cancer tumor progression in the CAM assay. Type of series: in vivo, chicken. The settings on record: 5 days of growth in the upper CAM; axelopran 1.0 mg/kg, pembrolizumab 2.5 mg/kg, bevacizumab 4 mg/kg. The procedure:
The chicken egg chorioallantoic membrane assay (FIG. 3B) allows for the study of tumor progression of injected tumor cells in the presence of active endogenous immune surveillance, but again in the absence of an active gut microbiome.
Breast cancer cell tumor progression was assessed in the chicken egg, chorioallantoic membrane assay. The experimental timing is shown below in FIG. 9. Fertilized chicken eggs were incubated for 9 days. The MDA-MB-231 tumor cell line was cultivated in D-MEM medium supplemented with 10% FBS and 1% penicillin/streptomycin. On day E9, cells were detached with trypsin, washed with complete medium and suspended in graft medium. An inoculum of 1×10^6 cells was added onto the CAM of each egg (E9) and then eggs were randomized into groups. Tumor cells (breast cancer MDA-MB231 cells (10^6)) were then seeded on the upper CAM and further incubated for 3 three days. Test agents were then added to the same site at selected concentrations. Following five days of further incubation the growing tumor was excised, freed of CAM tissue, and weighed.
For this testing, the chicken eggs were treated with: axelopran; pembrolizumab (Pembro); axelopran+pembrolizumab; bevacizumab (Beva); axelopran+bevacizumab; pembrolizumab+bevacizumab; and axelopran+pembrolizumab+bevacizumab. Axelopran was used at dose of 1.0 mg/kg; pembrolizumab was used at a dose of 2.5 mg/kg; and bevacizumab was used at a dose of 4 mg/kg. The results of this testing are shown in FIG. 10A, 10B, 11 and Table 2-2.

For another series, the system named is Zebra fish larvae. The series can be described thus: Zebra fish larvae mortality in combination therapy study. It counts as in vivo, zebrafish. The settings on record: TILs plus pembrolizumab. How it is done: (§1) The toxicity screening period covered the first 72 hours of development. The efficacy evaluation of Axelopran was made using M-001 melanoma cells and matching TILs. Two-day old zebrafish embryos were subcutaneously injected into the perivitelline space with approximately 700 M-001 cells labelled with Dil red fluorescent dye and intravenously injected with TILs with or without pembrolizumab antibody. At the same time, MOR-antagonist test doses were added to the water. Following an additional 72 hours of further development, the fish were assayed for tumor growth (size of original tumor implant) and metastasis disseminated to the distal caudal venous plexus (CVP) three days after implantation.
For study investigating combination therapy, the Zebra fish larvae mortality was also investigated.

For the next series, the system named is M-001 melanoma cells. Put plainly: Melanoma tumor progression in Zebra fish larvae. The settings on record: Pembro +TILS, no axelopran, 72 hours of growth. It counts as in vivo, zebrafish. How it is done: Zebra fish larvae (FIG. 3A) allow direct visualization of injected tumor cell growth and metastasis (collectively tumor progression) using fluorescently label tumor cells. At this developmental stage both the zebra fish immune system and gut microbiome are immature or lacking. Co-injection of exogenous tumor infiltrating lymphocytes (ex-TILS) allows the separate study of immune surveillance in the absence of a microbiome.
as §1
The testing described above was repeated studying the effects of various doses of axelopran (0, 50 nM, 100 nM, 500 nM, and 1000 nM) alone, pembrolizumab alone, or pembrolizumab in combination with axelopran. The results of this testing are shown in FIG. 7, which depicts a summary of melanoma tumor progression (tumor size×#metastasis) in the presence of increasing axelopran concentrations or the checkpoint inhibitor pembrolizumab. For experiments using pembrolizumab, exogenous tumor-infiltrating lymphocytes (TILs) were also injected. The additional controls included the effect of TILs alone and with axelopran (500 nM) and pembrolizumab and TILs alone and with axelopran (500 nM). *=<0.05, **=<0.005, ***=<0.0005.

With `C[N@+]1(CC2CC2)CC[C@]23c4c5ccc(O)c4O[C@H]2C(=O)CC[C@@]3(O)[C@H]1C5` [methylnaltrexone], the “angiogenesis (HUVEC cell tube formation)” value in series [1] was “inhibit angiogenesis”.
As for `C=CCN1CC[C@]23c4c5ccc(O)c4O[C@H]2[C@@H](OCCOCCOCCOCCOCCOCCOCCOC)CC[C@@]3(O)[C@H]1C5` [naloxegol], in series [1], the “angiogenesis (HUVEC cell tube formation)” value is “inhibit angiogenesis”.
Take `C=CCN1CC[C@]23c4c5ccc(O)c4O[C@H]2C(=O)CC[C@@]3(O)[C@H]1C5` [naloxone]: the “opioids-induced angiogenesis and angiogenesis by itself” value in series [2] is on record as “neither antagonizes opioids-induced angiogenesis nor induces angiogenesis by itself”.
Regarding bevacizumab: an anti-VEGF antibody, the “Breast cancer tumor progression index (tumor size × metastasis), Mean” value in series [3] is given as 0.28 fraction of negative control.
In the case of “pembrolizumab: an anti-PD1 antibody, checkpoint inhibitor”, the “Zebra fish larvae mortality” value with Zebra fish larvae was 63%. Further, the “Melanoma tumor progression index (tumor size × metastasis), Mean” value in the series on M-001 melanoma cells is given as 4.83. Further, in series [3], the “Breast cancer tumor progression index (tumor size × metastasis), Mean” value is 0.54 fraction of negative control.
